Reference: article doi:10.1101/2020.08.07.241463v2 (biorxiv, 2020)

Target: T1, OpuAC (free / soluble substrate-binding domain) (Lactococcus lactis, UniProt Q7DAU8, N367C/N423C)
T1 sequence (Q7DAU8 320-573 N367C/N423C): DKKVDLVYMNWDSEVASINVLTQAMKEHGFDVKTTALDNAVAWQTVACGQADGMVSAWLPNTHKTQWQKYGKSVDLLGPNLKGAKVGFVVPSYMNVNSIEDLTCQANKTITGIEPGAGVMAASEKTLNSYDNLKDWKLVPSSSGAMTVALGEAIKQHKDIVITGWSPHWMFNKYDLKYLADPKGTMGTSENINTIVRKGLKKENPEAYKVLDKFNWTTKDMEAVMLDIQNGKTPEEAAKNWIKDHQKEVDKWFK
Assay: smFRET

Kd: ~6 µM
SMILES: C[N+](C)(C)CC(=O)[O-] [GB, glycine betaine]
